Patent publication US20250122193A1, “NOVEL PYRIDOCARBAZOLIUM COMPOUNDS AND MEDICAL USES THEREOF” (MyCural Therapeutics, priority 2021, published 2025)
Values belong to the compound of their own block, whether it stands above or below them.

Tests used:
[1] = target: Recombinant human Top2a (Homo sapiens, UniProt P11388); test: Top2 decatenation assay; type: biochemical; settings: for effect on TOP2A activity: 1-100 μM
Experimental: Top2 decatenation assay: Recombinant human Top2a (15 nM) was incubated with 80 ng catenated kinetoplast DNA (Topogen, TG2013) in Top2 reaction buffer (50 mM Tris pH8, 150 mM NaCl, 10 mM MgCl2, 0.5 mM DTT, 30 μg/ml BSA) with 1-100 μM of either doxorubicin, MYCMI-7, ellipticine or camptothecin for 10 minutes at 37° C. Drug dilutions were made in a DMSO/H2O solution so that a final concentration of 1% DMSO was consistent across all samples. The reaction was stopped with the addition of SDS to a final concentration of 1% and the Top2a was digested by Proteinase K at 55° C. for 10 minutes. DNA was purified by phenol:chloroform extraction before running on a 1% agarose gel either containing or post-stained with 0.5 μg/ml ethidium bromide. The decatenated products were quantified, normalised to the Top2α+DMSO control and plotted using GraphPad Prism.
First, we utilized an in vitro TOP2A decatenation assay. TOP2 enzymes decatenate kinetoplast DNA (kDNA) converting a network of interlocking DNA rings into individual rings that can be separated by agarose gel electrophoresis.

[2] = target: MYC:MAX interaction (Homo sapiens, UniProt P01106); test: split Gaussia luciferase (GLuc) assay, MYC:MAX; type: cell-based; set-up: replacing the existing Zip-gene (GCN4) with full length MYC, MYCN or MAX cDNA; expressed in transfected cells; host or cells: HeLa; settings: HeLa cells
Experimental: (§1) A) Molecular structure of MYCMI-7. B-E) split Gaussia luciferase (GLuc) assay. MYC or MYCN and MAX Gluc constructs were co-transfected into HeLa cells together with a firefly luciferase vector. 24 hours post transfection cells were treated with compounds, and after another 17-24 hours cells were harvested and both GLuc and firefly luciferase activities were measured. The mean of three different experiments is shown. Treatment with: B) 5 μM of MYCMI-7, 64 μM 10058-F4 or 5 μM JQ1, respectively, C) 6.5 μM MYCMI-7 on cells expressing MYC:MAX GLuc vs. GCN4:GCN4 GLuc, D) 5 μM MYCMI-7 and 5 μM ellipticine. E) 5 μM MYCMI-7 for various time points. F) in situ proximity ligation assay (isPLA). […] MYC:GAL4 was used as negative control in the isPLA assay. G) Quantification of isPLA dots. (H) Co-immunoprecipitation (co-IP) of endogenous MYC and MAX proteins from MCF7 cells after treatment with 5 μM MYCMI-7 at various times. IP=immunoprecipitation; W=western blot. I) Chromatin immunoprecipitation (ChIP) of MYC at the ODC1 target gene promoter after treatment of cells with 5 μM MYCMI-7 for 6 hours. J) MYC target gene ODC1 expression after treatment with 5 μM MYCMI-7, quantified by qPCR. K) ChIP of MYC at the ODC promoter in MCF7 cells after 5 μM MYCMI-7 treatment for indicated time points. L) Recombinant MYC bHLHZip protein domain immobilized onto a CM5 chip was subjected to various concentrations of MYCMI-7 and the complex of MYCbHLHZip-MYCMI-7 was measured as response units by SPR. The sensogram was produced by subtracting the blank response.
0.2-0.4 μg of each GLuc-construct together with 0.05 μg pCMV-LUC (firefly luciferase) were used per transfection in 12 well plates. 24 hours later cells were treated with compound or DMSO. After another 17 hours, the cells were harvested and lyzed in passive lysis buffer (Promega) supplemented with complete protease inhibitor (Roche). After 60 min incubation at room temperature 20 μM D-luciferin was added (substrate of Firefly luciferase) and luminescence was measured in a Lumat LB9501 (Berthold) or OmegaFluostar (BMG Labtech) luminometer. Directly after, Gaussia luciferase substrate Coelenterazine (Promega) was added to a final concentration of 20 μM in a mixture with “Stop n' Glow” (Promega) and the luciferase activity was measured. The ratio between Gaussia and Firefly luciferase values were calculated and normalized to DMSO-treated control cells.

[3] = system: p53 expression; test: p53 expression by western blot; type: cell-based; settings: 5 μM, HCT116 cells
Experimental: (§2) A) Measurement of MYC mRNA expression by RTqPCR after treatment with MYCMI-7 and different topoisomerase inhibitors at indicated concentrations. […] D) Western blot analysis of p53 and p21 expression after exposure to 5 μM MYCMI-7, ellipticine or camptothecin (CPT) in HCT116 cells. E) Western blot analysis of phospho-ATM, total ATM and p53 expression after exposure to indicated concentrations of MYCMI-7 and ellipticine in A375 cells after 3 hrs treatment.
(§3) For western blot equal amounts of proteins ([…]) were separated on a 4-12% SDS-PAGE gel. Proteins were transferred to Immobilion-P membrane (Millipore) and detected by immunostaining and chemoluminescence (Immobilion western HRP substrate; Millipore). For immunoprecipitations 500-1000 μg of protein was used. […] Briefly, cells were crosslinked with 1% formaldehyde on ice for 6 minutes. Nuclear chromatin was sonicated on ice to fragments from 0.3 kb to 0.5 kb. Nuclear chromatin equivalent to 2.5×10^7 cells was immunoprecipitated with 2 μg antibody.

[4] = system: Rat1 fibroblasts TGR1 (wt MYC) and HOMyc3 (reconstituted MYC); test: WST-1 growth/viability assay, MYC-expressing Rat1 fibroblasts; type: cell-based, rat; settings: TGR1, HO15.19 and HOMyc3
Experimental: A) Immortalized Rat1 fibroblasts with different MYC status; TGR1 (wt MYC), HO15.19 (MYC−/−) and HOMyc3 (HO15.19 with reconstituted MYC) were treated with indicated concentrations of MYCMI-7 for 48 hours. Cell proliferation/viability/metabolic activity was measured using the WST-1 assay. […] “Responsive” and “less responsive”; cell lines with positive and negative log 10 GI50 values, respectively. […] For the WST-1 assays the average of three different experiments performed in triplicates is shown.
Cell growth and viability assays: Cell growth and viability was estimated in triplicates with WST-1 (Roche) or Resazurin sodium salt (Sigma-Aldrich) assays in medium at 37° C. and 5% CO2 for 2 hours after which absorbance or fluorescence, respectively, was measured with an Omega Fluostar (BMG Labtech) in a 96 well plate format.

[5] = system: phosphorylation of ATM; test: phospho-ATM and p53 by western blot, A375; type: cell-based; settings: 5 μM, A375 cells, 3 hrs
Experimental: as §2, §3

[6] = system: MYC mRNA; test: MYC mRNA expression by RT-qPCR; type: cell-based; settings: 1 μM
Experimental: as §2

[7] = target: T1, MYCN:MAX interaction (Homo sapiens, UniProt P04198); test: split Gaussia luciferase (GLuc) assay, MYCN:MAX; type: cell-based; settings: HeLa cells
T1 construct: replacing the existing Zip-gene (GCN4) with full length MYC, MYCN or MAX cDNA; expressed in transfected cells; host or cells: HeLa
T1 sequence (P04198 1-464): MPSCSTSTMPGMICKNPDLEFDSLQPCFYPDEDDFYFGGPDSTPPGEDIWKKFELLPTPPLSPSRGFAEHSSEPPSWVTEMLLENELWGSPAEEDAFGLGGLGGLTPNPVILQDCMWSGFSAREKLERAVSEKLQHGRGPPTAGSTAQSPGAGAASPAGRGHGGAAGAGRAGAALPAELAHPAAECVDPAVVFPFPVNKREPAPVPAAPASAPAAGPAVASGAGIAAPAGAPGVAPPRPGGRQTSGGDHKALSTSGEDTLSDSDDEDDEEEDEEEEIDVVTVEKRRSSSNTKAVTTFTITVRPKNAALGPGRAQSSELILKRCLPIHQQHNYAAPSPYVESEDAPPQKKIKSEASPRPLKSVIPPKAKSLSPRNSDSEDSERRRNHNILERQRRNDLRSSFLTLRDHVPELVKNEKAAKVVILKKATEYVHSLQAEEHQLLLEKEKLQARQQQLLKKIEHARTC
Experimental: as §1, with “K) ChIP of MYC at the ODC promoter in MCF7 cells after 5 μM MYCMI-7 treatment for indicated time points.” left out, “The sensogram was produced by subtracting the blank response.” left out
0.2-0.4 μg of each GLuc-construct together with 0.05 μg pCMV-LUC (firefly luciferase) were used per transfection in 12 well plates. […] After 60 min incubation at room temperature 20 μM D-luciferin was added (substrate of Firefly luciferase) and luminescence was measured in a Lumat LB9501 (Berthold) or OmegaFluostar (BMG Labtech) luminometer. Directly after, Gaussia luciferase substrate Coelenterazine (Promega) was added to a final concentration of 20 μM in a mixture with “Stop n' Glow” (Promega) and the luciferase activity was measured. The ratio between Gaussia and Firefly luciferase values were calculated and normalized to DMSO-treated control cells.

MYC:MAX interaction, sequence (P01106 16-454): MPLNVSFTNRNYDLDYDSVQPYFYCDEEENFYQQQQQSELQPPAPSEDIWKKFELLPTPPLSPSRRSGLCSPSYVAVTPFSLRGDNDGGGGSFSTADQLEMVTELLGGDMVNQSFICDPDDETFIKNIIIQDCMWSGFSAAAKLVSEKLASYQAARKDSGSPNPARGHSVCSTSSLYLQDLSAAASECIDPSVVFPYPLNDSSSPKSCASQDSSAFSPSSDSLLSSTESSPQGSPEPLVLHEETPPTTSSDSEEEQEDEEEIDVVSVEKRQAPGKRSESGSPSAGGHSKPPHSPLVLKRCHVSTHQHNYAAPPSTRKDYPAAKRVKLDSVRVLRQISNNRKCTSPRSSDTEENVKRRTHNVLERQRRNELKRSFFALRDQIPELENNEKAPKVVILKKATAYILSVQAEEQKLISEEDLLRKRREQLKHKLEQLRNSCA
Recombinant human Top2a, sequence (P11388 whole entry): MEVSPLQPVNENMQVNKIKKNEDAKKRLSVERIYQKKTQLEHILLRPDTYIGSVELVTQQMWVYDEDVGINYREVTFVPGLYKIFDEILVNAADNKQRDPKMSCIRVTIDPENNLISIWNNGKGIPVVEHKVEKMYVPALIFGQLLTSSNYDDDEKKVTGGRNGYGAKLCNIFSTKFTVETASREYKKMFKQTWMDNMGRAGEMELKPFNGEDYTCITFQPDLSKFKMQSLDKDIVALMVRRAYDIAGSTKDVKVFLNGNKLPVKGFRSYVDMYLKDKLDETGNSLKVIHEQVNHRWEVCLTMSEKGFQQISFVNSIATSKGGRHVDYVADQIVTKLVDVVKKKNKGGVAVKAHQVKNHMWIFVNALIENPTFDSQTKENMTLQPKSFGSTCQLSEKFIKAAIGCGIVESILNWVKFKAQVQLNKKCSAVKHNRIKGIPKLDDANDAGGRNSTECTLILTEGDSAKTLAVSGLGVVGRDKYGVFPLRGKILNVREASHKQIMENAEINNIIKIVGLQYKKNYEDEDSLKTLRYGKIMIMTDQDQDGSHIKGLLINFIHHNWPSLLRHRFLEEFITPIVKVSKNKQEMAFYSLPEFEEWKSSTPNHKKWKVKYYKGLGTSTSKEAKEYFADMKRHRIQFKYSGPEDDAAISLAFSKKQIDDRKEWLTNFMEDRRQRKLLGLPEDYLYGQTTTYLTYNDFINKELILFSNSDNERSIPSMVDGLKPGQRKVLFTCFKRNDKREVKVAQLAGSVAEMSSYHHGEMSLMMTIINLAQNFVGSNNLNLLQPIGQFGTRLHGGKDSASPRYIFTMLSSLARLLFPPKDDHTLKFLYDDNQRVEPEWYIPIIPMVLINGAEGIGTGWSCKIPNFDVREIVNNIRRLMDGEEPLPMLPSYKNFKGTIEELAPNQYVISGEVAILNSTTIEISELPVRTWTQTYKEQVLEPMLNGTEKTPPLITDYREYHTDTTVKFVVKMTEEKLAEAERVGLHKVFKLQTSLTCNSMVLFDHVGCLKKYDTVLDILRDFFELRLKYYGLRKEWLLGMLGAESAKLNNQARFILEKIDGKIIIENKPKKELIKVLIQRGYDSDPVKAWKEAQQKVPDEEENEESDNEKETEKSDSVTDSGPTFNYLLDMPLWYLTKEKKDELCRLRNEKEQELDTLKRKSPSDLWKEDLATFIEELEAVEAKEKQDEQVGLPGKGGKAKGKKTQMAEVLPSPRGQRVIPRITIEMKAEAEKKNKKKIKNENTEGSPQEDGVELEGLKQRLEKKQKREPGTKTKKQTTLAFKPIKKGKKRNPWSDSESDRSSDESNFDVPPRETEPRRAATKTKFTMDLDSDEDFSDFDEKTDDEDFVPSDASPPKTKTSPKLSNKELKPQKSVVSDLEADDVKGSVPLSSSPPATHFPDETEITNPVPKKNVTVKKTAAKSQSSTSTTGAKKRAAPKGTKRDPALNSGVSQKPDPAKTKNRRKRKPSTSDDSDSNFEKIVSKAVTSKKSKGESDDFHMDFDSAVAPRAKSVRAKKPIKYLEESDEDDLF

Compound: Cc1c2ccncc2c(C)c2c1[nH]c1ccccc12 [ellipticine, reference compound]
- effect on TOP2A activity [1]: no effect
- inhibition of MYC:MAX GLuc interaction ([2]; 5 μM): inactive
- p53 expression [3]: induced p53 expression
- growth of Rat1 cell clones irrespective of MYC status [4]: reduced growth of all three cell clones
- phosphorylation of ATM and p53 expression (DDR signaling) [5]: strongly induced

Compound: CC[C@@]1(O)C(=O)OCc2c1cc1n(c2=O)Cc2cc3ccccc3nc2-1 [camptothecin, reference compound]
- effect on TOP2A activity [1]: no effect
- p53 expression [3]: induced p53 expression

- concentration at which TOP2A inhibition starts ([1]; in vitro decatenation of kDNA): 3 µM
- concentration of complete TOP2A inhibition ([1]; in vitro decatenation of kDNA): 10 µM
Compound: COc1cccc2c1C(=O)c1c(O)c3c(c(O)c1C2=O)C[C@@](O)(C(=O)CO)C[C@@H]3O[C@H]1C[C@H](N)[C@H](O)[C@H](C)O1 [doxorubicin]
- MYC expression (mRNA) [6]: strongly reduced

Compound: Cc1sc2c(c1C)C(c1ccc(Cl)cc1)=N[C@@H](CC(=O)OC(C)(C)C)c1nnc(C)n1-2 [JQ1]
- inhibition of MYC:MAX GLuc interaction ([2]; 5 μM): only weak effects
- inhibition of MYCN:MAX GLuc interaction ([7]; 5 μM): only weak effects

- inhibition of MYC:MAX GLuc interaction ([2]; 64 μM): only weak effects
- inhibition of MYCN:MAX GLuc interaction ([7]; 64 μM): only weak effects
Compound: CCc1ccc(/C=C2/SC(=S)NC2=O)cc1 [Example 10058-F4, 10058-F4]
